{"source": "patent US8802597B2", "about": "“Herbicidal pyrimidines” (E I du Pont de Nemours and Company, priority 2003, dated 2014)", "test_in_all_cases": "Test C pre/postemergence", "assay_type_in_all_cases": "in vivo", "key": {"[1]": {"system": "Surinam grass (Brachiaria decumbens)", "settings": "Urochloa decumbens; for pest or weed control at 125 g/ha: 125 g ai/ha; for pest or weed control at 500 g/ha: 500 g ai/ha; for pest or weed control at 62 g/ha: 62 g ai/ha; for pest or weed control at 250 g/ha: 250 g ai/ha", "outline": "(§1)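 We sprayed seeded pots preemergence and 2–18 cm seedlings postemergence with test chemicals in a non-phytotoxic solvent mixture including surfactant. Greenhouse plants were visually compared with untreated controls at 12 to 14 days and scored 0 (no effect) to 100 (complete control).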"}, "[2]": {"system": "bermudagrass (Cynodon dactylon)", "settings": "Cynodon dactylon; for pest or weed control at 62 g/ha: 62 g ai/ha; for pest or weed control at 125 g/ha: 125 g ai/ha; for pest or weed control at 125 g/ha / pest or weed control at 250 g/ha / pest or weed control at 500 g/ha: scale 0 to 100; for pest or weed control at 250 g/ha: 250 g ai/ha; for pest or weed control at 500 g/ha: 500 g ai/ha", "outline": "as §1"}, "[3]": {"system": "common (oilseed) sunflower (Helianthus annuus)", "settings": "Helianthus annuus, pre-emergence, Preemergence, read-out: Plant response rating, Sunflower", "outline": "as §1"}, "[4]": {"system": "crabgrass (Digitaria sanguinalis)", "settings": "Digitaria sanguinalis; for pest or weed control at 62 g/ha: 62 g ai/ha; for pest or weed control at 125 g/ha: 125 g ai/ha; for pest or weed control at 250 g/ha: 250 g ai/ha; for pest or weed control at 500 g/ha: 500 g ai/ha", "outline": "as §1"}, "[5]": {"system": "giant foxtail (Setaria faberii)", "settings": "Setaria faberi; for pest or weed control at 125 g/ha: 125 g ai/ha; for pest or weed control at 500 g/ha: 500 g ai/ha; for pest or weed control at 62 g/ha: 62 g ai/ha; for pest or weed control at 250 g/ha: 250 g ai/ha", "outline": "as §1"}, "[6]": {"system": "goosegrass (Eleusine indica)", "settings": "Eleusine indica; for pest or weed control at 62 g/ha: 62 g ai/ha; for pest or weed control at 125 g/ha: 125 g ai/ha; for pest or weed control at 250 g/ha: 250 g ai/ha; for pest or weed control at 500 g/ha: 500 g ai/ha", "outline": "as §1"}, "[7]": {"system": "johnsongrass (Sorghum halepense)", "settings": "Sorghum halepense, post-emergence, Postemergence, scale 0 to 100 (0 no effect, 100 complete control), read-out: Johnsongrass plant response rating", "outline": "as §1"}, "[8]": {"settings": "post-emergence, Postemergence, scale 0 to 100 (0 no effect, 100 complete control), read-out: Surinam Grass plant response rating"}, "[9]": {"settings": "post-emergence, Postemergence, scale 0 to 100, read-out: Plant response rating, Surinam Grass"}, "[10]": {"settings": "pre-emergence, Preemergence, scale 0 to 100, read-out: Plant response rating, Surinam Grass"}, "[11]": {"settings": "post-emergence, Postemergence, read-out: Plant response rating, Bermudagrass"}, "[12]": {"settings": "pre-emergence, Preemergence, read-out: Plant response rating, Bermudagrass"}, "[13]": {"settings": "post-emergence, Postemergence, scale 0 to 100 (0 no effect, 100 complete control), read-out: Crabgrass plant response rating"}, "[14]": {"settings": "post-emergence, Postemergence, scale 0 to 100, read-out: Plant response rating, Crabgrass"}, "[15]": {"settings": "pre-emergence, Preemergence, scale 0 to 100, read-out: Plant response rating, Crabgrass"}, "[16]": {"settings": "post-emergence, Postemergence, scale 0 to 100 (0 no effect, 100 complete control), read-out: Foxtail, Giant plant response rating"}, "[17]": {"settings": "post-emergence, Postemergence, scale 0 to 100, read-out: Plant response rating, Foxtail, Giant"}, "[18]": {"settings": "pre-emergence, Preemergence, scale 0 to 100, read-out: Plant response rating, Foxtail, Giant"}, "[19]": {"settings": "post-emergence, Postemergence, scale 0 to 100 (0 no effect, 100 complete control), read-out: Goosegrass plant response rating"}, "[20]": {"settings": "post-emergence, Postemergence, scale 0 to 100, read-out: Plant response rating, Goosegrass"}, "[21]": {"settings": "pre-emergence, Preemergence, scale 0 to 100, read-out: Plant response rating, Goosegrass"}}, "note": "Read-outs that look alike come from different tables or passages of the source."}
{"smiles": "CCOC(=O)c1nc(C2CC2)nc(N)c1Cl", "note": "[Compound 4, ethyl 6-amino-5-chloro-2-cyclopropyl-4-pyrimidinecarboxylate]", "values": [{"measurement": "pest or weed control at 125 g/ha", "setting": "[1]; [8]", "value": 75, "unit": "%"}, {"measurement": "pest or weed control at 500 g/ha", "setting": "[1]; [9]", "value": 95, "unit": "%"}, {"measurement": "pest or weed control at 62 g/ha", "setting": "[1]; [8]", "value": 60, "unit": "%"}, {"measurement": "pest or weed control at 250 g/ha", "setting": "[1]; [9]", "value": 75, "unit": "%"}, {"measurement": "pest or weed control at 62 g/ha", "setting": "[1]; pre-emergence, Preemergence, scale 0 to 100, 0 no effect, 100 complete control, read-out: Plant response rating, Surinam Grass", "value": 0, "unit": "%"}, {"measurement": "pest or weed control at 125 g/ha", "setting": "[1]; [10]", "value": 65, "unit": "%"}, {"measurement": "pest or weed control at 250 g/ha", "setting": "[1]; [10]", "value": 85, "unit": "%"}, {"measurement": "pest or weed control at 500 g/ha", "setting": "[1]; [10]", "value": 100, "unit": "%"}, {"measurement": "pest or weed control at 62 g/ha", "setting": "[2]; post-emergence, Postemergence, scale 0 to 100 (0 no effect, 100 complete control), read-out: Bermudagrass plant response rating", "value": 40, "unit": "%"}, {"measurement": "pest or weed control at 125 g/ha", "setting": "[2]; [11]", "value": 65, "unit": "%"}, {"measurement": "pest or weed control at 250 g/ha", "setting": "[2]; [11]", "value": 70, "unit": "%"}, {"measurement": "pest or weed control at 500 g/ha", "setting": "[2]; [11]", "value": 80, "unit": "%"}, {"measurement": "pest or weed control at 62 g/ha", "setting": "[2]; pre-emergence, Preemergence, scale 0 to 100, 0 no effect, 100 complete control, read-out: Plant response rating, Bermudagrass", "value": 0, "unit": "%"}, {"measurement": "pest or weed control at 125 g/ha", "setting": "[2]; [12]", "value": 20, "unit": "%"}, {"measurement": "pest or weed control at 250 g/ha", "setting": "[2]; [12]", "value": 45, "unit": "%"}, {"measurement": "pest or weed control at 500 g/ha", "setting": "[2]; [12]", "value": 95, "unit": "%"}, {"measurement": "pest or weed control at 62 g/ha", "setting": "[3]; 62 g ai/ha, scale 0 to 100, 0 no effect, 100 complete control", "value": 100, "unit": "%"}, {"measurement": "pest or weed control at 125 g/ha", "setting": "[3]; 125 g ai/ha, scale 0 to 100", "value": 100, "unit": "%"}, {"measurement": "pest or weed control at 250 g/ha", "setting": "[3]; 250 g ai/ha, scale 0 to 100", "value": 100, "unit": "%"}, {"measurement": "pest or weed control at 500 g/ha", "setting": "[3]; 500 g ai/ha, scale 0 to 100", "value": 100, "unit": "%"}, {"measurement": "pest or weed control at 62 g/ha", "setting": "[4]; [13]", "value": 70, "unit": "%"}, {"measurement": "pest or weed control at 125 g/ha", "setting": "[4]; [13]", "value": 75, "unit": "%"}, {"measurement": "pest or weed control at 250 g/ha", "setting": "[4]; [14]", "value": 75, "unit": "%"}, {"measurement": "pest or weed control at 500 g/ha", "setting": "[4]; [14]", "value": 80, "unit": "%"}, {"measurement": "pest or weed control at 62 g/ha", "setting": "[4]; pre-emergence, Preemergence, scale 0 to 100, 0 no effect, 100 complete control, read-out: Plant response rating, Crabgrass", "value": 40, "unit": "%"}, {"measurement": "pest or weed control at 125 g/ha", "setting": "[4]; [15]", "value": 65, "unit": "%"}, {"measurement": "pest or weed control at 250 g/ha", "setting": "[4]; [15]", "value": 85, "unit": "%"}, {"measurement": "pest or weed control at 500 g/ha", "setting": "[4]; [15]", "value": 95, "unit": "%"}, {"measurement": "pest or weed control at 125 g/ha", "setting": "[5]; [16]", "value": 75, "unit": "%"}, {"measurement": "pest or weed control at 500 g/ha", "setting": "[5]; [17]", "value": 95, "unit": "%"}, {"measurement": "pest or weed control at 62 g/ha", "setting": "[5]; [16]", "value": 60, "unit": "%"}, {"measurement": "pest or weed control at 250 g/ha", "setting": "[5]; [17]", "value": 85, "unit": "%"}, {"measurement": "pest or weed control at 62 g/ha", "setting": "[5]; pre-emergence, Preemergence, scale 0 to 100, 0 no effect, 100 complete control, read-out: Plant response rating, Foxtail, Giant", "value": 0, "unit": "%"}, {"measurement": "pest or weed control at 125 g/ha", "setting": "[5]; [18]", "value": 40, "unit": "%"}, {"measurement": "pest or weed control at 250 g/ha", "setting": "[5]; [18]", "value": 75, "unit": "%"}, {"measurement": "pest or weed control at 500 g/ha", "setting": "[5]; [18]", "value": 85, "unit": "%"}, {"measurement": "pest or weed control at 62 g/ha", "setting": "[6]; [19]", "value": 0, "unit": "%"}, {"measurement": "pest or weed control at 125 g/ha", "setting": "[6]; [19]", "value": 20, "unit": "%"}, {"measurement": "pest or weed control at 250 g/ha", "setting": "[6]; [20]", "value": 65, "unit": "%"}, {"measurement": "pest or weed control at 500 g/ha", "setting": "[6]; [20]", "value": 75, "unit": "%"}, {"measurement": "pest or weed control at 62 g/ha", "setting": "[6]; pre-emergence, Preemergence, scale 0 to 100, 0 no effect, 100 complete control, read-out: Plant response rating, Goosegrass", "value": 0, "unit": "%"}, {"measurement": "pest or weed control at 125 g/ha", "setting": "[6]; [21]", "value": 25, "unit": "%"}, {"measurement": "pest or weed control at 250 g/ha", "setting": "[6]; [21]", "value": 55, "unit": "%"}, {"measurement": "pest or weed control at 500 g/ha", "setting": "[6]; [21]", "value": 65, "unit": "%"}, {"measurement": "pest or weed control at 62 g/ha", "setting": "[7]; 62 g ai/ha", "value": 70, "unit": "%"}, {"measurement": "pest or weed control at 125 g/ha", "setting": "[7]; 125 g ai/ha", "value": 80, "unit": "%"}]}
